Data reported in patent publication US20050208496A1, “Methods of testing for bronchial asthma or chronic obstructive pulmonary disease” (Genox Research, Inc., priority 2002, published 2005).
Values joined by “and” are separate entries in the source; they are usually repeats but may differ in a detail not shown here. Identical values can stand only once.

System: mouse counterpart genes
Experiment: Mouse GeneChip (MG-U74A to MG-U74C) analysis of lung and trachea of the OVA antigen-exposed bronchial hypersensitivity model, S-Sal group versus S-OVA group
Assay type: in vivo
[1] = S-Sal vs S-OVA group, 2nd, P/A: P
[2] = S-Sal vs S-OVA group, 3rd, P/A: A
[3] = S-Sal vs S-OVA group, 3rd, P/A: P

Substance: ovalbumin [OVA antigen, ovalbumin antigen used for sensitization and inhalation to induce bronchial hypersensitivity in mice]
- Fold Change, cathepsin C (mouse Probe ID 101019_at) [1]: 1.1
- Fold Change, dual specificity phosphatase 14 (mouse Probe ID 162702_at) [1]: 1.1
- Fold Change, expressed sequence AI839647 (mouse Probe ID 110839_at) [1]: 0.833
- Fold Change, integrin-associated protein (mouse Probe ID 103611_at) [1]: 1
- Fold Change, neutrophil cytosolic factor 2 (mouse Probe ID 102326_at) [1]: 2.2
- Fold Change, reticulocalbin 2 (mouse Probe ID 93281_at) [1]: 0.833
- Fold Change, ribosomal protein S16 (mouse Probe ID 97647_at) [1]: 1
- Fold Change, serine (or cysteine) proteinase inhibitor, clade B (ovalbumin), member 2 (mouse Probe ID 92978_s_at) [1]: 0.455
- Fold Change, signal transducer and activator of transcription 1 (mouse Probe ID 101465_at) [1]: 1.6
- Fold Change, signal transducer and activator of transcription 1 (mouse Probe ID 114635_at) [1]: 1.9
- Fold Change, zinc finger protein 263 (mouse Probe ID 109154_at) [1]: 0.833
- Fold Change, DNA-damage inducible transcript 3 (mouse Probe ID 101429_at) [2]: 0.625
- Fold Change, RAS guanyl releasing protein 1 (mouse Probe ID 98307_at) [2]: 1.3
- Fold Change, RAS guanyl releasing protein 1 (mouse Probe ID 167498_i_at) [2]: 2.4
- Fold Change, RIKEN cDNA A2301D9K23 gene (mouse Probe ID 163453_at) [2]: 1.4
- Fold Change, acid phosphatase 5, tartrate resistant (mouse Probe ID 162543_r_at) [2]: 8.7
- Fold Change, cathepsin C (mouse Probe ID 161251_f_at) [2]: 1.2
- Fold Change, dual specificity phosphatase 14 (mouse Probe ID 165144_r_at) [2]: 1.1
- Fold Change, dual specificity phosphatase 14 (mouse Probe ID 171285_at) [2]: 2.3
- Fold Change, keratin complex 1, acidic, gene 16 (mouse Probe ID 103589_at) [2]: 1.1
- Fold Change, keratin complex 1, acidic, gene 16 (mouse Probe ID 164428_i_at) [2]: 0.625
- Fold Change, nuclear factor, interleukin 3, regulated (mouse Probe ID 164758_i_at) [2]: 1.3
- Fold Change, ribosomal protein S16 (mouse Probe ID 169860_r_at) [2]: 1.1
- Fold Change, serine (or cysteine) proteinase inhibitor, clade B (ovalbumin), member 2 (mouse Probe ID 92978_s_at) [2]: 1.7
- Fold Change, serine (or cysteine) proteinase inhibitor, clade B (ovalbumin), member 2 (mouse Probe ID 137166_r_at) [2]: 1.2
- Fold Change, ubiquitin D (mouse Probe ID 92715_at) [2]: 0.625
- Fold Change, ubiquitin D (mouse Probe ID 168938_r_at) [2]: 1.4
- Fold Change, ubiquitin D (mouse Probe ID 169362_f_at) [2]: 0.667
- Fold Change, DEAD (aspartate-glutamate-alanine-aspartate) box polypeptide 5 (mouse Probe ID 93493_at) [3]: 1.1
- Fold Change, DEAD (aspartate-glutamate-alanine-aspartate) box polypeptide 5 (mouse Probe ID 113899_at) [3]: 1.4
- Fold Change, RIKEN cDNA 4933419D20 gene (mouse Probe ID 97442_at) [3]: 0.833
- Fold Change, RIKEN cDNA 4933419D20 gene (mouse Probe ID 112237_at) [3]: 1
- Fold Change, acid phosphatase 5, tartrate resistant (mouse Probe ID 98859_at) [3]: 1.7
- Fold Change, cathepsin C (mouse Probe ID 101019_at) [3]: 1
- Fold Change, cytokine inducible SH2-containing protein 1 (mouse Probe ID 92832_at) [3]: 1.5
- Fold Change, dual specificity phosphatase 14 (mouse Probe ID 162702_at) [3]: 1
- Fold Change, expressed sequence AI463430 (mouse Probe ID 112883_at) [3]: 1.5
- Fold Change, fatty acid binding protein 4, adipocyte (mouse Probe ID 100567_at) [3]: 1.1
- Fold Change, integrin-associated protein (mouse Probe ID 103611_at) [3]: 1
- Fold Change, neutrophil cytosolic factor 2 (mouse Probe ID 102326_at) [3]: 1.2
- Fold Change, ribosomal protein S16 (mouse Probe ID 97647_at) [3]: 1
- Fold Change, signal transducer and activator of transcription 1 (mouse Probe ID 101465_at) [3]: 1
- Fold Change, signal transducer and activator of transcription 1 (mouse Probe ID 114635_at) [3]: 1.1
- Fold Change, ubiquitin fusion degradation 1 like (mouse Probe ID 93303_at) [3]: 1.3
- Fold Change, zinc finger protein 263 (mouse Probe ID 109154_at) [3]: 1.3
- Fold Change, A kinase (PRKA) anchor protein 10 (mouse probe 163162_at) (mouse, in vivo): 0.769
- Fold Change, DNA segment. Chr 16. ERATO Doi 269, expressed (mouse probe 97821_at) (mouse, in vivo): 0.909
- Fold Change, DNA segment. Chr 16. ERATO Doi 269, expressed (mouse probe 97822_at) (mouse, in vivo): 0.909
- Fold Change, DnaJ (Hsp40) homolog, subfamily A, member 1 (mouse Probe ID 97261_at) (mouse, in vivo): 0.909
- Fold Change, ESTs AI844322 (mouse Probe ID 110469_at) (mouse, in vivo): 0.909 and 0.769
- Fold Change, MP and activin membrane-bound inhibitor, homolog (Xanopus laevis) (mouse probe 162531_at) (mouse, in vivo): 0.769
- Fold Change, RIKEN cDNA 6330404C01 gene (mouse Probe ID 166590_at) (mouse, in vivo): 0.769
- Fold Change, RIKEN cDNA A2301D9K23 gene (mouse Probe ID 166475_r_at) (mouse, in vivo): 0.714
- Fold Change, SAM domain and HD domain, 1 (mouse Probe ID 103080_at) (mouse, in vivo): 0.909
- Fold Change, a disintegrin and metalloprotease domain 8 (mouse probe 103024_at) (mouse, in vivo): 0.769
- Fold Change, a disintegrin and metalloprotease domain 28 (mouse probe 101723_r_at) (mouse, in vivo): 0.714 and 0.769
- Fold Change, acid phosphatase 5, tartrate resistant (mouse Probe ID 98859_at) (mouse, in vivo): 0.769
- Fold Change, cadherin 6 (mouse Probe ID 101730_at) (mouse, in vivo): 0.714
- Fold Change, cathepsin C (mouse Probe ID 101020_at) (mouse, in vivo): 0.909
- Fold Change, cholesterol 25-hydroxylase (mouse probe 133666_at) (mouse, in vivo): 0.909 and 0.769
- Fold Change, claudin 5 (mouse probe 104516_at) (mouse, in vivo): 0.769
- Fold Change, decay accelerating factor 1 (mouse probe 164905_r_at) (mouse, in vivo): 0.769
- Fold Change, dipeptidylpeptidase 4 (mouse Probe ID 92634_at) (mouse, in vivo): 0.714
- Fold Change, dual specificity phosphatase 14 (mouse Probe ID 171285_at) (mouse, in vivo): 0.909
- Fold Change, expressed sequence AI463430 (mouse Probe ID 112883_at) (mouse, in vivo): 0.909
- Fold Change, expressed sequence AI839647 (mouse Probe ID 110839_at) (mouse, in vivo): 0.909
- Fold Change, fatty acid binding protein 4, adipocyte (mouse Probe ID 100567_at) (mouse, in vivo): 0.714
- Fold Change, fetuin beta (mouse Probe ID 108524_at) (mouse, in vivo): 0.714
- Fold Change, fructose bisphosphatase 1 (mouse Probe ID 96918_at) (mouse, in vivo): 0.769
- Fold Change, growth arrest and DNA-damage-inducible 45 gamma (mouse Probe ID 109336_at) (mouse, in vivo): 0.909
- Fold Change, hydroxysteroid (17-beta) dehydrogenase 2 (mouse Probe ID 101891_at) (mouse, in vivo): 0.909
- Fold Change, hydroxysteroid (17-beta) dehydrogenase 2 (mouse Probe ID 166141_i_at) (mouse, in vivo): 0.714
- Fold Change, hydroxysteroid (17-beta) dehydrogenase 2 (mouse Probe ID 169670_at) (mouse, in vivo): 0.769 and 0.909
- Fold Change, intercellular adhesion molecule (mouse Probe ID 96752_at) (mouse, in vivo): 0.714
- Fold Change, interferon gamma inducible protein 30 (mouse probe 164423_at) (mouse, in vivo): 0.714
- Fold Change, interleukin 1 receptor-like 1 (mouse probe 98501_at) (mouse, in vivo): 0.769
- Fold Change, low density lipoprotein receptor-related protein associated protein 1 (mouse probe 100086_at) (mouse, in vivo): 0.714
- Fold Change, low density lipoprotein receptor-related protein associated protein 1 (mouse probe 161988_f_at) (mouse, in vivo): 0.714
- Fold Change, matrix metalloproteinase 7 (mouse probe 162318_r_at) (mouse, in vivo): 0.769
- Fold Change, membrane-associated protein 17 (mouse probe 96935_at) (mouse, in vivo): 0.909
- Fold Change, neurotrophic tyrosine kinase, receptor type 1 (mouse probe 110116_at) (mouse, in vivo): 0.909
- Fold Change, nitric oxide synthase 2, inducible, macrophage (mouse Probe ID 104420_at) (mouse, in vivo): 0.714
- Fold Change, nuclear factor, interleukin 3, regulated (mouse Probe ID 164758_i_at) (mouse, in vivo): 0.714
- Fold Change, osteoblast specific factor 2 (fasciclin I-like) (mouse Probe ID 92593_at) (mouse, in vivo): 0.909
- Fold Change, phosphotidylinositol transfer protein, beta (mouse probe 102696_s_at) (mouse, in vivo): 0.714
- Fold Change, polycystic kidney disease 2 (mouse probe 100951_at) (mouse, in vivo): 0.769
- Fold Change, procollagen lysine, 2-oxoglutarate 5-dioxygenase 2 (mouse Probe ID 114376_at) (mouse, in vivo): 0.909
- Fold Change, reticulocalbin 2 (mouse Probe ID 93281_at) (mouse, in vivo): 0.909
- Fold Change, serine (or cysteine) proteinase inhibitor, clade B (ovalbumin), member 6 (mouse Probe ID 96060_at) (mouse, in vivo): 0.714
- Fold Change, sialyltransferase 1 (beta-galactoside alpha-2,6-sialyltransferase) (mouse Probe ID 167200_r_at) (mouse, in vivo): 0.769 and 0.909
- Fold Change, thioredoxin reductase 1 (mouse Probe ID 99985_at) (mouse, in vivo): 0.909
- Fold Change, thioredoxin reductase 1 (mouse Probe ID 161284_r_at) (mouse, in vivo): 0.909 and 0.769
- Fold Change, transforming growth factor, beta 2 (mouse Probe ID 93300_at) (mouse, in vivo): 0.769
- Fold Change, transmembrane 4 superfamily member 8 (mouse Probe ID 97912_at) (mouse, in vivo): 0.769
- Fold Change, ubiquitin D (mouse Probe ID 92715_at) (mouse, in vivo): 0.714
- Fold Change, zinc finger protein 263 (mouse Probe ID 109154_at) (mouse, in vivo): 0.769
